Measurements: paper PMC8316002, “Inhibition of Escherichia coli Lipoprotein Diacylglyceryl Transferase Is Insensitive to Resistance Caused by Deletion of Braun’s Lipoprotein” (Journal of Bacteriology, 2021)
Where a SMILES comes first, the peptide text is derived from it. Bridges are numbered along the chain shown (N, C = ends). [ ]: non-standard residue; d: D form. Bip = N[C@@H](Cc1ccc(-c2ccccc2)cc1)C(=O)O; NMeF = CN[C@@H](Cc1ccccc1)C(=O)O

Legend:
PA14 imp4213 = experiment: microbe, parasite or virus in culture; format: cell-based, P. aeruginosa; settings: average of two independent experiments in duplicates
Protocol: Bacterial strains and plasmids used in this study are listed in Table S1 in the supplemental material. E. coli strain CFT073 (ATCC 700928) ([62]) and MG1655 (ATCC 700926) were purchased from ATCC. Gene disruption in CFT073 was performed as previously described ([17], [63]). CFT073 Δlgt and MG1655 ΔlspA were generated using λ Red recombination ([17], [63]). Plasmids pKD46 for the λ Red recombinase ([17], [63]), pKD4 or pSim18 for the integration construction ([17], [63]), and pCP20 ([64]) for the FLP recombinase were used in this study. The 3′ primers (Table S2) used to generate the integration construct from pKD4 contain a juxtaposed ribosome binding site downstream of the kanamycin (Kan) cassette to allow for the creation of nonpolar gene deletions within operons ([63]), which is critical when generating the lgt inducible deletion strain given that the ribosomal binding site of the thyA gene downstream of lgt is within the lgt coding region. The inducible deletion strains (MG1655 Δlgt and MG1655 ΔlolCDE) in either the WT and/or Δlpp backgrounds were generated using similar methods as previously described ([17], [65]). To delete lpp in the lgt, lspA, and lolCDE inducible deletion strains, the Kan cassette was removed by transforming the FLP recombinase-expressing pCP20 plasmid followed by deletion of the lpp gene using λ Red recombinase as discussed above. Similar protocols were used to introduce the imp4213 mutant allele. The PA14 imp4213 strain was generated based on published protocols ([66][–][68]). Briefly, the lptD imp4213 mutant allele was generated by PCR amplifying PA14 genomic DNA using primer pairs PA14imp4213_up-F/PA14imp4213_up-R (upstream region) and PA14imp4213_dn-F/PA14imp4213_dn-R (downstream region) to create lptD missing amino acids 425 to 447. PCR products were combined with the PCR-amplified vector pEX18gm with primers pLMG18_GA-F/pLMG18_GA-R and assembled using Gibson assembly (NEB). The resultant suicide vector pEX18gm was confirmed by sequence analysis (ELIM Biopharm). […]
Unless stated otherwise, E. coli cells were grown in Luria-Bertani (LB) medium (0.5% yeast extract, 1% tryptone, 0.5% NaCl) at 37°C. […] Growth of MG1655 inducible deletion strains was measured by culturing in the presence of 2-fold dilutions of arabinose (starting arabinose concentrations for CFT073 and MG1655 inducible deletion strains were 4% and 0.8%, respectively). While 2% arabinose was sufficient for WT growth of MG1655 Δlgt, 4% arabinose was used for CFT073 Δlgt based on comparing its growth to that of WT CFT073 as measured by CFU. OD600 growth measurements were performed using an EnVision 2101 multilabel reader plate reader (PerkinElmer) linked with Echo liquid handler (Labcyte). […]

E. coli Lgt = target: T1, E. coli Lgt (Escherichia coli, UniProt P60955); experiment: biochemical; settings: 3 nM Lgt-DDM, 50 μM phosphatidylglycerol, 12.5 μM Pal-IAAC, 50 mM Tris (pH 8), 0.02% DDM, 60 min at RT; luminescence; at least two independent experiments in triplicates; read-out: IC50, inhibition of Lgt biochemical activity
T1 construct: DNA encoding full-length E. coli Lgt fused to a C-terminal Flag tag; Flag (C); made in house; host or cells: E. coli Rosetta 2(DE3) Gold cells (Agilent)

CFT073 imp4213 Δlpp = experiment: Time-kill, CFT073 imp4213 versus CFT073 imp4213 Δlpp; format: cell-based, E. coli; settings: 12.5 μM G2824, 3.2 μM globomycin or 1.6 μM vancomycin, CFU, two independent experiments in triplicates
Protocol: To compare the rate of bactericidal killing of G2824 with that of globomycin, we treated CFT073 imp4213 and CFT073 imp4213 Δlpp cells with G2824 and globomycin at 2× MIC of the respective inhibitors against CFT073 imp4213 and enumerated viable CFU counts.
Unless stated otherwise, E. coli cells were grown in Luria-Bertani (LB) medium (0.5% yeast extract, 1% tryptone, 0.5% NaCl) at 37°C. Where indicated, kanamycin (Kan) was added to culture media at a 50-μg/ml final concentration. MIC assays were performed based on Clinical and Laboratory Standards Institute (CLSI) guidelines. […] Growth of MG1655 inducible deletion strains was measured by culturing in the presence of 2-fold dilutions of arabinose (starting arabinose concentrations for CFT073 and MG1655 inducible deletion strains were 4% and 0.8%, respectively). While 2% arabinose was sufficient for WT growth of MG1655 Δlgt, 4% arabinose was used for CFT073 Δlgt based on comparing its growth to that of WT CFT073 as measured by CFU. OD600 growth measurements were performed using an EnVision 2101 multilabel reader plate reader (PerkinElmer) linked with Echo liquid handler (Labcyte). […] Bacterial viability at different time points during the treatment was measured by enumerating CFU. […]

T1 sequence (P60955 whole entry, the tested form may be a part): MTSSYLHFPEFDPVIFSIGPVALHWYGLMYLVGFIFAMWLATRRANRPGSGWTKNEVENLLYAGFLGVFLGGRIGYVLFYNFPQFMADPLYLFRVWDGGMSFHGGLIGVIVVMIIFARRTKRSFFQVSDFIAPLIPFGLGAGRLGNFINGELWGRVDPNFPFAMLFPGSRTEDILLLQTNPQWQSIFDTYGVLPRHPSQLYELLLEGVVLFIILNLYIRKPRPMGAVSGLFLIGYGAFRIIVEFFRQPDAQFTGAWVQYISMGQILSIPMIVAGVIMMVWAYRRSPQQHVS

Structure (SMILES)	MIC (PA14 imp4213)	IC50 (E. coli Lgt)	effect of lpp deletion on bactericidal killing (CFT073 imp4213 Δlpp)	MIC (PA14 imp4213; Pseudomonas aeruginosa)
CN1C(=O)[C@H](Cc2ccc(-c3ccccc3)cc2)NC(=O)CNC(=O)[C@H](CC(=O)O)NC(=O)[C@@H](Cc2ccccc2)NC(=O)CSC[C@@H](C(=O)NCC(=O)N[C@@H](CCCCN)C(=O)N[C@@H](CCCCN)C(N)=O)NC(=O)[C@H](CCCNC(=N)N)NC(=O)[C@H](CO)NC(=O)[C@H](Cc2ccc(-c3ccccc3)cc2)NC(=O)[C@@H]1Cc1ccccc1 [G2824] ({CH2CO}-[dF]DG[Bip][NMeF][Bip]SRCGKK-NH2; thioether N-9)	6.3 µM	180 nM		
CN1C(=O)[C@H](Cc2ccc(-c3ccccc3)cc2)NC(=O)CNC(=O)[C@H](CCCNC(=N)N)NC(=O)[C@@H](Cc2ccccc2)NC(=O)CSC[C@@H](C(=O)NCC(N)=O)NC(=O)[C@H](CCCNC(=N)N)NC(=O)[C@H](CO)NC(=O)[C@H](Cc2ccc(-c3ccccc3)cc2)NC(=O)[C@@H]1Cc1ccccc1 [G9066] ({CH2CO}-[dF]RG[Bip][NMeF][Bip]SRCG-NH2; thioether N-9)	6.3 µM	240 nM		
CCCCCC[C@H]1OC(=O)CNC(=O)[C@H]([C@H](C)O)NC(=O)[C@H](CO)NC(=O)[C@H]([C@H](C)CC)NC(=O)[C@H](CC(C)C)N(C)C(=O)[C@@H]1C [Globomycin]	50 µM		lost in the absence of lpp	
CN[C@H](CC(C)C)C(=O)N[C@H]1C(=O)N[C@@H](CC(N)=O)C(=O)N[C@H]2C(=O)N[C@H]3C(=O)N[C@H](C(=O)N[C@H](C(=O)O)c4cc(O)cc(O)c4-c4cc3ccc4O)[C@H](O)c3ccc(c(Cl)c3)Oc3cc2cc(c3O[C@@H]2O[C@H](CO)[C@@H](O)[C@H](O)[C@H]2O[C@H]2C[C@](C)(N)[C@H](O)[C@H](C)O2)Oc2ccc(cc2Cl)[C@H]1O [Vancomycin]			equivalent killing of CFT073 imp4213 and CFT073 imp4213 Δlpp at 5 h posttreatment	12.5 µM
